Source: ChEMBL document CHEMBL1154991, “Activity-guided isolation of antioxidative constituents of Cotinus coggygria” (J Nat Prod, 2000)
In brackets after ≈: the same amount, converted by molar mass.

Tested on: Radical scavenging activity
Assay: Antioxidant activity assessed as DPPH radical scavenging activity after 30 mins
Type: functional

| SMILES | IC50 [µg/mL] |
| --- | --- |
| O=C1/C(=C(/C(=C2\Oc3cc(O)ccc3C2=O)c2ccc(O)c(O)c2)c2ccc(O)c(O)c2)Oc2cc(O)ccc21 | 9.7 (≈ 18 µM) |
| O=C1O[C@H]([C@@H](O)CO)C(O)=C1O [ASCORBIC ACID] | 22 (≈ 125 µM) |
| COc1ccc(O)c(C(C)(C)C)c1.COc1ccc(O)cc1C(C)(C)C [BUTYLATED HYDROXYANISOLE] | 21 |
| O=C(O)c1cc(O)c(O)c(O)c1 [GALLIC ACID] | 10 (≈ 58.8 µM) |
| O=C(OC[C@H]1O[C@@H](OC(=O)c2cc(O)c(O)c(O)c2)[C@H](OC(=O)c2cc(O)c(O)c(O)c2)[C@@H](OC(=O)c2cc(O)c(O)c(O)c2)[C@@H]1OC(=O)c1cc(O)c(O)c(O)c1)c1cc(O)c(O)c(O)c1 [PENTAGALLOYL GLUCOSE] | 12.6 (≈ 13.4 µM) |

Other lines, results leading:

| IC50 [µg/mL] | SMILES |
| --- | --- |
| 18.6 (≈ 101 µM) | COC(=O)c1cc(O)c(O)c(O)c1 [GALLIC ACID METHYL ESTER] |
| 18.7 (≈ 43.2 µM) | O=C1/C(=C/c2ccc(O)c(O)c2)Oc2cc(O[C@@H]3O[C@H](CO)[C@@H](O)[C@H](O)[C@H]3O)ccc21 [SULFUREIN] |
| 16.1 (≈ 59.6 µM) | O=C1/C(=C/c2ccc(O)c(O)c2)Oc2cc(O)ccc21 [SULFURETIN] |
